Source: US8962627B2, “Oxime derivatives and their use as allosteric modulators of metabotropic glutamate receptors” (Prestwick Chemical, Inc., priority 2009, dated 2015)

How the values were obtained:
[1] = molecular target: T1, human mGluR4 transiently over-expressed in HEK-293 cells (Homo sapiens, UniProt Q14833); assay: Human mGluR4 positive allosteric modulator evaluation using Ca++ functional assay; assay type: cell-based; conditions: HEK-293 cells co-transfected with hmGluR4 and chimeric G protein; EC10 glutamate; intracellular calcium (Fluo4AM); read-out: mean EC50 of agonist/positive allosteric modulator activity on mGluR4
T1 construct: expressed in transfected cells; host or cells: HEK-293 cells, transient co-transfection by electroporation
How it was run: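 HEK-293 cells transiently co-transfected with hmGluR4 and a chimeric G protein, loaded with Fluo4AM; Ca2+ fluorescence read 485/525 nm. Compound alone read 60 s, then EC10 glutamate added and read 60 s more. EC50 fitted from 6–9 concentrations, duplicate, two independent runs.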

[2] = system: mice; assay: Haloperidol-induced catalepsy model (bar test) in the mouse; assay type: in vivo; conditions: 30 mg/kg i.p. consecutively with haloperidol 1 mg/kg i.p.; compared with vehicle; FIG. 1
Method: In-Vivo Evaluation in the Haldoperidol-Induced Catalepsy Model in the Mouse
This method, which detects anti-Parkinsonian activity, follows that described by Pires et al. (J Med and Biol Res 38 1867-1872, 2005; Shiozaki et al., Psychopharmacology 147, 90-95, 1999)
Catalepsy was assessed using the bar test in mice submitted to acute intra-peritoneal administration of Haloperidol 1 mg/kg. Mice (male Rj: NMRI mice, weighing 25-30 g at the beginning of the experiment) placed in group of 5 in Plexiglas cages, were injected with Haloperidol (1 mg/kg i.p.). […] The catalepsy response of one mouse was measured as the time the animal maintained an imposed posture with both forelimbs placed on a horizontal 0.9 cm diameter wire bar suspended 4 cm above a platform. The end point of catalepsy was considered to occur when both forelimbs were removed from the bar, the mouse climbed onto the bar or if the animal moved its head in an exploratory manner. A cut-off time of 180 seconds was applied. The degree of catalepsy was scored 45 min after Haloperidol administration and continued at 45 minutes intervals for a total of 270 minutes. Between determinations, the animals were returned to their home cages. The compound of Example 63, administered i.p. consecutively with haloperidol, was evaluated at 30 mg/kg and compared with a vehicle control group. […]

T1 sequence (Q14833 33-912): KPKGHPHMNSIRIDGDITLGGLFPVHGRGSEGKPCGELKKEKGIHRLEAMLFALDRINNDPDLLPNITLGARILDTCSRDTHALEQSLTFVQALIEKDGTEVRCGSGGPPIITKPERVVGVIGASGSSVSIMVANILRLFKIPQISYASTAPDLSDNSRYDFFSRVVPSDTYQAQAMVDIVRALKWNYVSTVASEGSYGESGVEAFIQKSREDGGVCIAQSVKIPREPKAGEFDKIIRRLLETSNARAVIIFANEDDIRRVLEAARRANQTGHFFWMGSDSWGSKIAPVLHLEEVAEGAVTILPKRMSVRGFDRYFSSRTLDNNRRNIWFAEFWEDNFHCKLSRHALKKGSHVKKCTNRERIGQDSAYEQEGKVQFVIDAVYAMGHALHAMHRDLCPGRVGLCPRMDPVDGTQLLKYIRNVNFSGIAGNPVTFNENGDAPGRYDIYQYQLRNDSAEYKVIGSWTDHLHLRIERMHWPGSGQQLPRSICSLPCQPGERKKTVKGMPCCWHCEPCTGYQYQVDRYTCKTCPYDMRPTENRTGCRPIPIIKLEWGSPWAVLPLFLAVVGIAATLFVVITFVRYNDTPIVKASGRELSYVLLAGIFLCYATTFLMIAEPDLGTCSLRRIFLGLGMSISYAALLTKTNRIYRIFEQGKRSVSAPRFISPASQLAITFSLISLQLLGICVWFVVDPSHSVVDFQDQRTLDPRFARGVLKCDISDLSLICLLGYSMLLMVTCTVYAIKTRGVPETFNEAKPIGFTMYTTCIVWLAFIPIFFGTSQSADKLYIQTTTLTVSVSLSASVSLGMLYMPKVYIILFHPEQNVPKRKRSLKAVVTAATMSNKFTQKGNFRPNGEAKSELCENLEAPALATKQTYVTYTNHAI

- EC50 [1]: < 1000 nM
Structure (SMILES): ON=c1cc(-c2cc3cccn3cn2)oc2ccccc12 [Example 63, 2-Pyrrolo[1,2-c]pyrimidin-3-yl-chromen-4-one oxime]
- anticataleptic activity (mean time of latency spent on the bar) [2]: significant anticataleptic activity
